# In patent US9309221B2, “1-substituted indazole derivative” (Dainippon Sumitomo Pharma Co., Ltd., priority 2012, dated 2016):
# Experiments:
# [1] = target: T1, human α7 nAChR (Homo sapiens, UniProt P36544); assay: Evaluation of PAM activity with human α7 nACh receptor stably expressing cells (aequorin luminescence, FDSS7000); format: cell-based; settings: ACh at EC20; for α7PAM (%) @ 10 μmol/L: test compound 10 μmol/L, ratio of RLU (Max-Min) of test-compound wells to control wells, human α7 nAChR expressing GH4C1 cells; for PAM activity for α7 nAChR (in words): ratio of RLU (Max-Min) of test wells to control wells
# T1 construct: expressed in transfected cells; host or cells: GH4C1 cells (rat pituitary, ATCC CCL-82.2)
# Text: Evaluation of PAM Activity with Human α7 nACh Receptor Stably Expressing Cells
# (1) Human α7 nAChR stably expressing cells
# Human α7 nAChR stably expressing cells were generated and cultured. In detail, GH4C1 cells derived from rat pituitary (cat#CCL-82.2, ATCC, USA) were used as a host cell. PcDNA3.1Zeo vector containing a nucleotide sequence encoding a protein GenBank BAC81731 and pcDNA3.1 vector containing human α7 nAChR gene (cat#V790-20, invitrogen, Carlsbad, Calif., USA) were transfected to the cells to give aequorins and human α7 nAChR stably expressing cells respectively. The aequorins and human α7 nAChR stably expressing cells were screened with Zeocin (cat#R25001, invitrogen, Carlsbad, Calif., USA) and Geneticin (cat#10131-027, invitrogen, Carlsbad, Calif., USA) respectively.
# The cells were cultured in F-10 Nutrient Mixture (Ham) medium (cat#11550-043, invitrogen, Carlsbad, Calif., USA) containing 2.5% fetal bovine serum (cat#2917354, ICN Biomedicals, Inc, USA), 15% inactivated horse serum (cat#26050-088, invitrogen, Carlsbad, Calif., USA), 1 μg/mL Geneticin, and 5 μg/mL Puromycin (cat#14861-84, invitrogen, Carlsbad, Calif., USA), in a Collagen Type 1-coated dish (cat#4030-010, iwaki, Tokyo, Japan). During the culture, the medium was replaced with fresh medium in every 2 to 3 days, and the cells were treated with TrypLE Express (cat#45604-021, invitrogen, Carlsbad, Calif., USA) to collect them in every 7 days. Thus, the cells were subcultured.
# 7 Days after subculturing, the cells were treated with TrypLE Express to collect them when they were about 80% confluent. The cells were suspended in a reaction medium containing Hanks (cat#14065-056, invitrogen, Carlsbad, Calif., USA)/20 mmol/L Hepes (cat#15630-080, invitrogen, Carlsbad, Calif., USA), Buffer (pH 7.4), F-10 Nutrient Mixture (Ham), and 0.1 mg/mL Geneticin, and the suspension was seeded in a 384-well plate (cat#781090, Greiner, Germany) at 20000 cells/25 μL per well.
# On the next day after seeding, Viviren (cat#E649X, Promega, Madison, Wis., USA) was added to the medium so that the final concentration could be 4 μmol/L (15 μL/well). The plates were centrifuged and then placed in the dark for 4 hours at room temperature.
# (2) Preparation of the Test Samples
# Each of the test compounds was dissolved in DMSO to prepare each test sample at a concentration of 1000-fold the final concentration. To the solution was added Hanks/20 mM HEPES/0.2% BSA (cat#A3803, Sigma, St. Louis, Mo., USA), and the concentration was adjusted to 6-fold the final concentration.
# (3) Evaluation of PAM Activity
# FDSS7000 (Hamamatsu Photonics) was used to detect the luminescence signal evoked by α7 nAChR stimulation. The cells and a luminescent substrate were put on a plate, and the test sample was added thereto. […] After the addition of ACh, the luminescence signal (the central wavelength: 465 nm) was measured for 138 seconds to calculate RLU (Max-Min). The ratio of the RLU (Max-Min) of the test-compound-containing wells to that of the control wells was defined as PAM activity.
# [2] = test system: Slc: ddY mice; assay: Novel object recognition test with mice (mORT); format: in vivo; settings: 0.3 mg/kg, 1.0 mg/kg or 3 mg/kg
# Method: Evaluation of Cognitive Function with Mice in Novel Object Recognition Test (Hereinafter, Referred to as “mORT”)
# Slc: ddY mice (25 g to 30 g, male, Japan SLC) can be used in the novel object recognition test wherein the interval between the 1st trial (training) and the 2nd trial (test) correlates with the memory loss for the objects used in the 1st trial, and a significant memory-loss is observed when the 2nd trial is performed 24 hours after the 1st trial. According to the test mechanism, the present compounds were administered prior to the 1st trial, and the enhancement effect on memory in the 2nd trial was evaluated.
# T1 sequence (P36544 23-502): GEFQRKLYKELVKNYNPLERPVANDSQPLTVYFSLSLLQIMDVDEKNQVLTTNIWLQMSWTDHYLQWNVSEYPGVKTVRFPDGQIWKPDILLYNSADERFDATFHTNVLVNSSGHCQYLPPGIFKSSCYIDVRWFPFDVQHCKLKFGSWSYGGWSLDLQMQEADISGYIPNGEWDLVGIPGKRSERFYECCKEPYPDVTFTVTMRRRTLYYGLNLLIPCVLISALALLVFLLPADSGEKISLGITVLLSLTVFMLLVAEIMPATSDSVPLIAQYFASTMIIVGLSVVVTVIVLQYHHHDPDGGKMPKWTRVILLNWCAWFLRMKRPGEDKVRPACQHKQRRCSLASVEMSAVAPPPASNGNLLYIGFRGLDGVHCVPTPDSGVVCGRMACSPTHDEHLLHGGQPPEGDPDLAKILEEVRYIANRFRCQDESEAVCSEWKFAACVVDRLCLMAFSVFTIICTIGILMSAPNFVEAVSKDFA
Compound,α7PAM (%) @ 10 μmol/L [1],PAM activity for α7 nAChR (in words) [1],efficacy at higher doses [2]
"CO[C@H]1CC[C@H](NC(=O)N2CCC(n3ncc4cc(C)ccc43)CC2)CC1 [Example 1, N-(trans-4-methoxycyclohexyl)-4-(5-methyl-1H-indazol-1-yl)piperidine-1-carboxamide]",1209%,,the efficacy did not decrease
"CO[C@H]1CC[C@H](NC(=O)N2CCC(n3ncc4cc(C5CC5)ccc43)CC2)CC1 [Example 74, 4-(5-cyclopropyl-1H-indazol-1-yl)-N-(trans-4-methoxycyclohexyl)piperidine-1-carboxamide]",1226%,,the efficacy did not decrease
"Cc1ccc2c(cnn2C2CCN(C(=O)N[C@H]3CCCCC3(F)F)CC2)c1 [Example 79, (S)—N-(2,2-difluorocyclohexyl)-4-(5-methyl-1H-indazol-1-yl)piperidine-1-carboxamide]",1064%,,
"CCc1ccc2c(cnn2[C@H]2CC[C@@H](NC(=O)NC3CCC(F)(F)CC3)CC2)c1 [Example 5, 1-(4,4-difluorocyclohexyl)-3-(cis-4-(5-ethyl-1H-indazol-1-yl)cyclohexyl)urea]",1368%,,
CCc1ccc2c(cnn2C2CCN(C(=O)NC3CCCC3)CC2)c1 [Example 20],,stronger PAM activity than others,
CCc1ccc2c(cnn2C2CCN(C(=O)C3CCOCC3)CC2)c1 [Example 111],410%,,

# Further lines, with some results ahead:
α7PAM (%) @ 10 μmol/L [1],PAM activity for α7 nAChR (in words) [1],Compound,efficacy at higher doses [2]
1093%,,"CCc1ccc2c(cnn2C2CCN(C(=O)NC3CCOCC3)CC2)c1OC [Example 275, 4-(5-ethyl-4-methoxy-1H-indazol-1-yl)-N-(tetrahydro-2H-pyran-4-yl)piperidine-1-carboxamide]",
1096%,,"CCc1ccc2c(cnn2C2CCN(C(=O)N[C@H]3CC[C@H](OC)CC3)CC2)c1OC [Example 255, 4-(5-ethyl-4-methoxy-1H-indazol-1-yl)-N-(trans-4-methoxycyclohexyl)piperidine-1-carboxamide]",
800%,,COCc1c(C)ccc2c1cnn2C1CCN(C(=O)NC2CCC(F)(F)CC2)CC1 [Example 213],
,stronger PAM activity than others,CCc1ccc2c(cnn2[C@H]2CC[C@@H](NC(=O)C3CCCCC3)CC2)c1 [Example 119],
